Assay results: ChEMBL document CHEMBL3046232, “Synthesis, pharmacological evaluation and molecular docking studies of indanone derivatives” (2012)

Experiments:
Type in all cases: functional
Mus musculus [1] = assay: Analgesic activity in Mus musculus Swiss albino (mouse) assessed as increase in reaction time of paw licking or jump response at 50 mg/kg, po after 90 min by hot plate method
Mus musculus [2] = assay: Analgesic activity in Mus musculus Swiss albino (mouse) assessed as increase in reaction time of paw licking or jump response at 50 mg/kg, po after 60 min by hot plate method
Mus musculus [3] = assay: Analgesic activity in Mus musculus Swiss albino (mouse) assessed as increase in reaction time of paw licking or jump response at 50 mg/kg, po after 30 min by hot plate method
Rattus norvegicus [4] = assay: Anti-inflammatory activity in Rattus norvegicus Wistar albino (rat) assessed as protection against carrageenan-induced paw edema at 50 mg/kg after 3 hr
Rattus norvegicus [5] = assay: Anti-inflammatory activity in Rattus norvegicus Wistar albino (rat) assessed as protection against carrageenan-induced paw edema at 50 mg/kg after 2 hr
Rattus norvegicus [6] = assay: Anti-inflammatory activity in Rattus norvegicus Wistar albino (rat) assessed as protection against carrageenan-induced paw edema at 50 mg/kg after 90 min
Rattus norvegicus [7] = assay: Anti-inflammatory activity in Rattus norvegicus Wistar albino (rat) assessed as protection against carrageenan-induced paw edema at 50 mg/kg after 60 min
Rattus norvegicus [8] = assay: Anti-inflammatory activity in Rattus norvegicus Wistar albino (rat) assessed as protection against carrageenan-induced paw edema at 50 mg/kg after 30 min
Penicillium chrysogenum [9] = assay: Antimicrobial activity against at Penicillium chrysogenum at 100 ug/ml by cup-plate method; conditions: read-out: IZ
Penicillium chrysogenum [10] = assay: Antimicrobial activity against at Penicillium chrysogenum at 50 ug/ml by cup-plate method; conditions: read-out: IZ
Penicillium chrysogenum [11] = assay: Antimicrobial activity against at Penicillium chrysogenum at 25 ug/ml by cup-plate method; conditions: read-out: IZ
Aspergillus niger [12] = assay: Antimicrobial activity against at Aspergillus niger at 100 ug/ml by cup-plate method; conditions: read-out: IZ
Aspergillus niger [13] = assay: Antimicrobial activity against at Aspergillus niger at 50 ug/ml by cup-plate method; conditions: read-out: IZ
Bacillus subtilis [14] = assay: Antimicrobial activity against at Bacillus subtilis at 100 ug/ml by cup plate method; conditions: read-out: IZ
Aspergillus niger [15] = assay: Antimicrobial activity against at Aspergillus niger at 25 ug/ml by cup-plate method; conditions: read-out: IZ
Bacillus subtilis [16] = assay: Antimicrobial activity against at Bacillus subtilis at 50 ug/ml by cup plate method; conditions: read-out: IZ
Escherichia coli [17] = assay: Antimicrobial activity against at Escherichia coli at 100 ug/ml by cup-plate method; conditions: read-out: IZ
Escherichia coli [18] = assay: Antimicrobial activity against at Escherichia coli at 50 ug/ml by cup-plate method; conditions: read-out: IZ
Escherichia coli [19] = assay: Antimicrobial activity against at Escherichia coli at 25 ug/ml by cup-plate method; conditions: read-out: IZ
Bacillus subtilis [20] = assay: Antimicrobial activity against at Bacillus subtilis at 25 ug/ml by cup plate method; conditions: read-out: IZ

| SMILES | Activity (Mus musculus [1]) [%] | Activity (Mus musculus [2]) [%] | Activity (Mus musculus [3]) [%] | Activity (Rattus norvegicus [4]) [%] | Activity (Rattus norvegicus [5]) [%] | Activity (Rattus norvegicus [6]) [%] | Activity (Rattus norvegicus [7]) [%] | Activity (Rattus norvegicus [8]) [%] | zone of inhibition at 100 µg/mL (Penicillium chrysogenum [9]) [mm] | zone of inhibition at 50 µg/mL (Penicillium chrysogenum [10]) [mm] | zone of inhibition at 25 µg/mL (Penicillium chrysogenum [11]) [mm] | zone of inhibition at 100 µg/mL (Aspergillus niger [12]) [mm] | zone of inhibition at 50 µg/mL (Aspergillus niger [13]) [mm] | zone of inhibition at 100 µg/mL (Bacillus subtilis [14]) [mm] | zone of inhibition at 25 µg/mL (Aspergillus niger [15]) [mm] | zone of inhibition at 50 µg/mL (Bacillus subtilis [16]) [mm] | zone of inhibition at 100 µg/mL (Escherichia coli [17]) [mm] | zone of inhibition at 50 µg/mL (Escherichia coli [18]) [mm] | zone of inhibition at 25 µg/mL (Escherichia coli [19]) [mm] | zone of inhibition at 25 µg/mL (Bacillus subtilis [20]) [mm] |
| --- | --- | --- | --- | --- | --- | --- | --- | --- | --- | --- | --- | --- | --- | --- | --- | --- | --- | --- | --- | --- |
| COc1ccc(-c2onc3c2C(=O)c2ccccc2-3)cc1OC | 23.54 | 19.02 | 12.61 | 7.32 | 6.52 | 8.12 | 7.21 | 6.21 | 13.8 | 5.25 | 4.75 | 17.8 | 13.8 | 19.7 | 6.5 | 12.8 | 24.5 | 11 | 7.25 | – |
| O=C1c2ccccc2-c2noc(-c3ccccc3)c21 | 17.23 | 12.03 | 6.23 | 26.21 | 28.42 | 30.19 | 27.61 | 21.44 | 19.5 | 12.8 | 6 | 22.8 | 16.8 | 16.3 | 9.75 | 12 | 30.9 | 16.9 | 9.79 | 9 |
| O=C1c2ccccc2-c2noc(-c3ccccc3[N+](=O)[O-])c21 | 9.84 | 7.62 | 5.24 | 9.52 | 8.01 | 7.11 | 6.33 | 7.22 | 14.2 | 8.25 | 5.25 | 19 | 7.25 | 14.2 | – | 7.5 | 19.8 | 12.8 | 5.25 | 4.25 |
| O=C1c2ccccc2-c2noc(-c3cccc([N+](=O)[O-])c3)c21 | 14.2 | 10.38 | 5.44 | 6.44 | 7.44 | 5.52 | 3.99 | 2.02 | 13.5 | 7 | – | 17 | 13.2 | 13.5 | 4.25 | 7 | 17 | 13.2 | – | 4 |
| O=C1c2ccccc2-c2noc(-c3ccc(Cl)cc3)c21 | 16.1 | 12.8 | 7.18 | 16.21 | 15.11 | 12.16 | 12 | 6.31 | 12 | 8.5 | – | 13 | 9.75 | 18.5 | 5.5 | 11.5 | 16 | 6.75 | 6 | 5.25 |
| Cc1ccc(-c2onc3c2C(=O)c2ccccc2-3)cc1 | 27.01 | 23.12 | 15.55 | 30.33 | 36.45 | 45.72 | 43.66 | 35.29 | 15.5 | 6.75 | – | 28 | 18.5 | 15 | 10.5 | 10.5 | 25.3 | 15 | 10 | 6.77 |
| O=C1c2ccccc2-c2noc(-c3ccc(O)cc3)c21 | 27.87 | 23.74 | 16.52 | 33.45 | 36.33 | 42.6 | 41.46 | 31.16 | 14 | 6 | 4.35 | 21 | 13 | 17.5 | 6 | 11.2 | 13.8 | 5.25 | 4.75 | – |
| CN(C)c1ccc(-c2onc3c2C(=O)c2ccccc2-3)cc1 | 9.93 | 5.65 | 5.02 | 20.1 | 19.21 | 14.23 | 8.45 | 7.11 | 12.2 | 7.25 | 4 | 13 | 7.5 | 12 | 5.5 | 4.75 | 17.2 | 12 | – | – |
| COc1ccc(-c2onc3c2C(=O)c2ccccc2-3)cc1 | 8.04 | 5.13 | 3.06 | 9.21 | 12.32 | 16.38 | 12.21 | 7.71 | 19.6 | 12.7 | 5.35 | 17 | 11.7 | 14.8 | 7.25 | 5.5 | 20.2 | – | 5.5 | – |
| COc1cc(-c2onc3c2C(=O)c2ccccc2-3)cc(OC)c1OC | 12.54 | 9.75 | 4.48 | 26.32 | 29.15 | 29.14 | 22.38 | 17.21 | 19 | 9.25 | 5.5 | 19.2 | 11.2 | 18.8 | 6.49 | 11.5 | 27.8 | 16.5 | – | 5.25 |
| COc1cccc(-c2onc3c2C(=O)c2ccccc2-3)c1O | 16.43 | 11.44 | 6 | 30.41 | 34.32 | 37.62 | 32.22 | 25.44 | 16.6 | 10.5 | 5.35 | 29.6 | 16.5 | 16 | 10.8 | – | 21 | 14.7 | 10.2 | 6.75 |
| CC1(C)S[C@@H]2[C@H](NC(=O)[C@H](N)c3ccccc3)C(=O)N2[C@H]1C(=O)O [AMPICILLIN] | – | – | – | – | – | – | – | – | – | – | – | – | – | 21.1 | – | 12.1 | 32.7 | 20.4 | 11.2 | 9.1 |
| OC(Cn1cncn1)(Cn1cncn1)c1ccc(F)cc1F [FLUCONAZOLE] | – | – | – | – | – | – | – | – | 21.2 | 14.2 | 7.32 | 31.8 | 21.7 | – | 11.9 | – | – | – | – | – |
| COc1ccc2c(c1)c(CC(=O)O)c(C)n2C(=O)c1ccc(Cl)cc1 [INDOMETHACIN] | – | – | – | 20.22 | 20.15 | 21.12 | 23.22 | 28.56 | – | – | – | – | – | – | – | – | – | – | – | – |
